# Several values for one entry are separate records, joined by “and”; a condition that tells them apart may be missing. Identical values can stand only once.
# Key:
# [1] = tested on: Colletotrichum lindemuthianum; assay: In vitro antimicrobial activity test in 96-well microplate (absorbance at 620 nm); assay type: cell-based; conditions: used alone
# [2] = tested on: Cercospora beticola; assay: as above; assay type: cell-based; conditions: used alone
# [3] = tested on: Pyrenophora graminea; assay: In vitro antimicrobial activity test on PDA plate media (colony diameter); assay type: cell-based; conditions: used alone
# [4] = tested on: Glomerella cingulata; assay: as above; assay type: cell-based
# [5] = tested on: Microdocum nivale; assay: as above; assay type: cell-based; conditions: used alone
# [6] = tested on: Alternaria alternata apple pathotype; assay: as above; assay type: cell-based; conditions: used alone
# [7] = tested on: Gaeumannomyces graminis; assay: as above; assay type: cell-based; conditions: used alone
# [8] = tested on: Penicillium italicum; assay: as above; assay type: cell-based
# [9] = tested on: Fusarium fujikuroi; assay: as above; assay type: cell-based; conditions: used alone
# [10] = tested on: Fusarium graminearum; assay: microbe, parasite or virus in culture; assay type: cell-based
# [11] = tested on: wheat leaf rust (Puccinia recondita); assay: Controlling effect test against wheat leaf rust (foliar spray on potted wheat seedlings); assay type: in vivo; conditions: sprayed alone
# [12] = tested on: Pyrenophola teres; assay: In vitro antimicrobial activity test on PDA plate media (colony diameter); conditions: read-out: Actual fungal growth inhibition rate (%)
# Excerpt: Apart from this, Pyrenophola teres pre-cultivated on chemical-free plate media was punched out with a 4-mm diameter cork borer and inoculated on chemical-containing PDA plate media.
# In the above formula, R represents the fungal growth inhibition rate (%), dc represents the colony diameter on the chemical-free plate, and dt represents the colony diameter on the chemical-containing plate. […] Inhibition rate when mixed for use(theoretical value)=α+((100−α)×β/100
# In the above formula, α and β represent the inhibition rate when each compound is used alone.
# [13] = Colletotrichum gloeosporioides, used alone, 0.50 ppm, read-out: Actual fungal growth inhibition rate (%)
# [14] = Gaeumannomyces graminis, 0.03 ppm, read-out: Actual fungal growth inhibition rate (%)
# [15] = Gaeumannomyces graminis, 0.13 ppm, read-out: Actual fungal growth inhibition rate (%)
# [16] = Pyrenophora graminea, 0.50 ppm, read-out: Actual fungal growth inhibition rate (%)
# [17] = Fusarium fujikuroi, read-out: Actual fungal growth inhibition rate (%)
compound,measurement,setting,value
"Cc1cccc(-n2nnn(C)c2=O)c1COc1ccn(-c2ccc(Cl)cc2)n1 [Metyltetraprole, metyltetraprole]",Actual growth inhibition rate,[1]; 0.08 ppm,6%
same,Actual growth inhibition rate,[1]; 0.4 ppm,73%
same,Actual growth inhibition rate,[1]; 2.0 ppm,91%
same,Actual growth inhibition rate,[2]; 0.08 ppm,72%
same,Actual fungal growth inhibition rate (%),[3]; 0.001 ppm,0%
"CON=C(C(=O)OC)c1ccccc1CON=C(C)c1cccc(C(F)(F)F)c1 [Trifloxystrobin, trifloxystrobin, reference compound]",inhibition at 0.5 ppm,[4]; [13],46%
same,inhibition at 0.03 ppm,"[5]; 0.03 ppm, read-out: Actual fungal growth inhibition rate (%)",65%
same,inhibition at 0.13 ppm,"[6]; Alternaria alternata, 0.13 ppm, read-out: Actual fungal growth inhibition rate (%)",48%
same,inhibition at 0.002 ppm,"[7]; Gaeumannomyces graminis, 0.002 ppm, read-out: Actual fungal growth inhibition rate (%)",8%
same,inhibition at 0.03 ppm,[7]; [14],5%
same,inhibition at 0.13 ppm,[7]; [15],11%
same,inhibition at 0.5 ppm,"[7]; Gaeumannomyces graminis, 0.50 ppm, read-out: Actual fungal growth inhibition rate (%)",15%
same,Actual fungal growth inhibition rate (%),[7]; 0.50 ppm,9%
same,inhibition at 0.13 ppm,"[3]; Pyrenophora graminea, 0.13 ppm, read-out: Actual fungal growth inhibition rate (%)",54%
same,inhibition at 0.5 ppm,[3]; [16],54%
same,Actual fungal growth inhibition rate (%),[3]; 0.50 ppm,55%
same,inhibition at 0.5 ppm,"[8]; Penicillium italicum, used alone, 0.50 ppm, read-out: Actual fungal growth inhibition rate (%)",90%
same,inhibition at 0.002 ppm,"[9]; Fusarium fujikuroi, 0.002 ppm, read-out: Actual fungal growth inhibition rate (%)",0%
same,inhibition at 0.01 ppm,[9]; [17],10%
COC(=O)C(O)(Cn1cncn1)c1ccc(Oc2ccc(C(F)(F)F)cc2)cc1Cl (stereo not drawn) [Azole derivative I-23],Actual fungal growth inhibition rate (%),[10],79%
same,Actual fungal growth inhibition rate (%),"[4]; used alone, 0.03 ppm",9%
same,Actual fungal growth inhibition rate (%),"[4]; used alone, 0.13 ppm",31%
same,Actual fungal growth inhibition rate (%),"[4]; used alone, 0.50 ppm",61%
same,Actual fungal growth inhibition rate (%),[5]; 0.01 ppm,0%
same,Actual fungal growth inhibition rate (%),[5]; 0.13 ppm,4% and 10%
same,Actual fungal growth inhibition rate (%),[5]; 0.50 ppm,27% and 24%
same,Actual fungal growth inhibition rate (%),[6]; 0.03 ppm,0%
same,Actual fungal growth inhibition rate (%),[6]; 0.13 ppm,0%
same,Actual fungal growth inhibition rate (%),[7]; 0.01 ppm,0%
same,Actual fungal growth inhibition rate (%),[7]; 0.03 ppm,38%
same,Actual fungal growth inhibition rate (%),[7]; 0.08 ppm,92%
same,Actual fungal growth inhibition rate (%),[7]; 5.00 ppm,94%
same,Actual fungal growth inhibition rate (%),[3]; 0.08 ppm,73%
same,Actual fungal growth inhibition rate (%),[3]; 0.13 ppm,81%
same,Actual fungal growth inhibition rate (%),[3]; 0.31 ppm,92%
same,Actual fungal growth inhibition rate (%),[3]; 0.50 ppm,91%
same,Actual fungal growth inhibition rate (%),[3]; 1.25 ppm,95%
same,Actual fungal growth inhibition rate (%),"[8]; used alone, 0.01 ppm",6%
same,Actual fungal growth inhibition rate (%),"[8]; used alone, 0.03 ppm",12%
same,Actual fungal growth inhibition rate (%),"[8]; used alone, 0.13 ppm",35%
same,Actual fungal growth inhibition rate (%),"[8]; used alone, 0.50 ppm",52% and 43%
"COC(=O)C(O)(Cn1cncn1)c1ccc(Oc2ccc(Cl)cc2)cc1Cl (stereo not drawn) [Azole derivative I-1, methyl 2-hydroxy-2-(2-chloro-4-(4-chlorophenoxy)phenyl)-3-(1H-1,2,4-triazole-1-yl)propanoate]",inhibition at 0.25 ppm,"[10]; Fusarium graminearum, read-out: Actual fungal growth inhibition rate (%)",0%
same,inhibition at 0.1 ppm,"[1]; Colletotrichum lindemuthianum, 0.10 ppm, read-out: Actual growth inhibition rate",0%
same,inhibition at 0.01 ppm,"[4]; Colletotrichum gloeosporioides, used alone, 0.01 ppm, read-out: Actual fungal growth inhibition rate (%)",0%
same,inhibition at 0.03 ppm,"[4]; Colletotrichum gloeosporioides, used alone, 0.03 ppm, read-out: Actual fungal growth inhibition rate (%)",9%
same,inhibition at 0.13 ppm,"[4]; Colletotrichum gloeosporioides, used alone, 0.13 ppm, read-out: Actual fungal growth inhibition rate (%)",49%
same,inhibition at 0.5 ppm,[4]; [13],77%
same,Actual fungal growth inhibition rate (%),"[4]; used alone, 0.50 ppm",75%
same,Actual controlling rate,[11]; 0.63 g/ha,16% and 11%
same,Actual controlling rate,[11]; 1.25 g/ha,40% and 67%
same,Actual controlling rate,[11]; 2.5 g/ha,83% and 98%
same,inhibition at 0.01 ppm,"[6]; Alternaria alternata, 0.01 ppm, read-out: Actual fungal growth inhibition rate (%)",0%
same,inhibition at 0.03 ppm,"[6]; Alternaria alternata, 0.03 ppm, read-out: Actual fungal growth inhibition rate (%)",0%
same,Actual fungal growth inhibition rate (%),[6]; 0.13 ppm,1%
same,inhibition at 0.02 ppm,"[2]; Cercospora beticola, 0.02 ppm, read-out: Actual growth inhibition rate",0%
same,inhibition at 0.5 ppm,"[2]; Cercospora beticola, 0.5 ppm, read-out: Actual growth inhibition rate",6%
same,inhibition at 2.5 ppm,"[2]; Cercospora beticola, 2.5 ppm, read-out: Actual growth inhibition rate",99%
same,inhibition at 0.25 ppm,[12],48%
same,inhibition at 0.03 ppm,[7]; [14],31%
same,inhibition at 0.13 ppm,[7]; [15],94%
same,Actual fungal growth inhibition rate (%),[7]; 0.03 ppm,28%
same,Actual fungal growth inhibition rate (%),[7]; 0.13 ppm,93%
same,inhibition at 0.01 ppm,"[3]; Pyrenophora graminea, 0.01 ppm, read-out: Actual fungal growth inhibition rate (%)",37%
same,inhibition at 0.03 ppm,"[3]; Pyrenophora graminea, 0.03 ppm, read-out: Actual fungal growth inhibition rate (%)",71%
same,inhibition at 0.5 ppm,[3]; [16],94%
same,Actual fungal growth inhibition rate (%),[3]; 0.03 ppm,70% and 68%
same,Actual fungal growth inhibition rate (%),[3]; 0.13 ppm,81% and 80% and 57% and 82%
same,Actual fungal growth inhibition rate (%),[3]; 0.50 ppm,95% and 93%
same,inhibition at 0.01 ppm,[9]; [17],0%
same,inhibition at 0.03 ppm,"[9]; Fusarium fujikuroi, 0.03 ppm, read-out: Actual fungal growth inhibition rate (%)",4%
same,inhibition at 0.5 ppm,"[9]; Fusarium fujikuroi, 0.50 ppm, read-out: Actual fungal growth inhibition rate (%)",59%
"COC(=O)Nc1nc2ccccc2[nH]1 [Carbendazim, carbendazim]",inhibition at 0.625 ppm,[12],0%
same,inhibition at 2.5 ppm,[12],6%
same,inhibition at 10 ppm,[12],13%
same,inhibition at 40 ppm,[12],14%
COC(=O)C(O)(Cn1cncn1)c1ccc(Oc2ccc(Cl)cc2)cc1Br (stereo not drawn) [Azole derivative I-228],Actual fungal growth inhibition rate (%),[10],39%
same,Actual fungal growth inhibition rate (%),"[4]; Glomerella cingulata, single chemical at 0.01 ppm",0%
same,Actual fungal growth inhibition rate (%),"[4]; Glomerella cingulata, single chemical at 0.03 ppm",16%
same,Actual fungal growth inhibition rate (%),"[4]; used alone, 0.01 ppm",2%
same,Actual fungal growth inhibition rate (%),"[4]; used alone, 0.03 ppm",12%
same,Actual fungal growth inhibition rate (%),"[4]; used alone, 0.50 ppm",82%
same,Actual fungal growth inhibition rate (%),[5]; 1.25 ppm,56%
same,Actual fungal growth inhibition rate (%),[5]; 5.00 ppm,86%
same,Actual fungal growth inhibition rate (%),[7]; 0.13 ppm,89%
same,Actual fungal growth inhibition rate (%),[7]; 0.31 ppm,63%
same,Actual fungal growth inhibition rate (%),[7]; 1.25 ppm,67%
same,Actual fungal growth inhibition rate (%),[7]; 5.00 ppm,71%
same,Actual fungal growth inhibition rate (%),[3]; 0.50 ppm,84%
same,Actual fungal growth inhibition rate (%),"[8]; Penicillium italicum, single chemical at 0.13 ppm",56%
same,Actual fungal growth inhibition rate (%),[9]; 0.50 ppm,21%

# Reference: US12207654B2, “Bactericidal agent for agricultural or horticultural use, plant disease control method, and product for plant disease control use” (Kureha Corporation, priority 2019, dated 2025)
